Measured values reported in paper PMC12523642, “Unveiling the Bioactive Potential of Allium colchicifolium Boiss Bulb Flavonoids: Anti-cancer Activities, and Computational Exploration of Anti-angiogenic Mechanisms” (Iranian Journal of Pharmaceutical Research : IJPR, 2025).
In brackets after ≈: the same amount, converted by molar mass. Where two headings read alike, the source gives them in different places.

Columns and labels:
[1] = system: VEGF receptor-2 and angiogenesis cellular signaling pathways; details: 25 µM; cited from earlier work
[2] = system: chicken chorioallantoic membrane (CAM); test: Chick chorioallantoic membrane (CAM) anti-angiogenesis assay; type: in vivo; details: Gallus gallus, read-out: Anti-angiogenesis IC50 (50% inhibition of angiogenesis)
Protocol: The anti-angiogenesis activities of the MeOH extract and isolated compounds ([1]-[3]) were evaluated using the chicken chorioallantoic membrane (CAM) model. Briefly, pathogen-free fertilized chicken eggs were purchased from Baharan Parent Stock Company, Kermanshah, Iran, and incubated at 37°C with 75% humidity for 7 days. Then, square windows (1 cm^2) were opened in the outer shell of the eggs, and different concentrations of samples were loaded. After 48 hours, the zones around the discs were photographed with a digital camera and macroscopically assayed for neovascular zones of CAM in each treatment group. The effects on local vessel density within a 10 cm^2 area surrounding the windows were measured in each treatment group using AngioSoft software (V, 2019) ([12], [13]). The study was done in triplicate for each experimental group (8 eggs). The anti-angiogenesis IC50 value for the extracts was reported as the concentration that reduces 50% angiogenesis compared to the blank disk.
The results of the anti-angiogenesis activities of isolated flavonoids (1 - 3) and the MeOH extract of A. colchicifolium bulbs on the CAM model of angiogenesis are shown in Figure 2A and B. The IC50 of each compound was considered as the concentration that caused 50% inhibition of angiogenesis in a 100 mm^2 area surrounding each sample disc compared to the negative control disc (distilled water).

[3] = system: PC3 (human prostate adenocarcinoma); test: MTT cytotoxicity assay on PC3; type: cell-based; details: 24 h, mean ± SD, read-out: Cytotoxic activity IC50, PC3
Protocol: (§1) Cancer cell lines, including PC3 NCBI-C427 (human prostate adenocarcinoma), HeLa NCBI-C115 (human cervix carcinoma), MCF7 NCBI-C135 (human breast adenocarcinoma), and a normal cell line, human umbilical vein endothelial cell (HUVEC) NCBI-C554, were purchased from the Pasteur Institute of Tehran, Iran. Cells were cultured and maintained in Dulbecco’s modified Eagle’s medium (DMEM) supplemented with 10% fetal bovine serum (FBS) and 2% (v/v) streptomycin-penicillin in a humidified incubator with a 5% CO2 atmosphere at 37°C. Passages 2 to 3 of the cells were utilized for the cytotoxicity assay ([18]).
(§2) The MTT assay was used to determine the cytotoxic activities of the MeOH extract, isolated compounds (1 - 3), and doxorubicin (as a positive control) on human cancer cell lines. For the MTT assay, concentrations (1, 5, 10, 25, 50, 100 µg) of the samples were prepared in DMEM as diluent and incubated with cells (10^5 cells/mL) for 24 hours in 96-well plates. Then, the MTT powder was added to the wells and incubated for 4 hours at 37°C. Absorbance was measured at 570 nm using a microplate reader. The experiment was performed in triplicate, and cell viability percentages were calculated by the following equation: […]. The negative control was untreated cells. The cytotoxicity IC50 value for the extracts was defined as the concentration that reduces 50% cell viability ([19]).

[4] = system: HeLa (human cervix carcinoma); test: MTT cytotoxicity assay on HeLa; type: cell-based; details: 24 hours, mean ± SD, read-out: Cytotoxic activity IC50, HeLa
Protocol: as §1, §2

mice VEGF serum levels = system: mice VEGF serum levels; design: method as in PMID 23867787; details: 20 mg/kg; by reducing mice VEGF serum levels; cited from earlier work
[5] = MTT cytotoxicity assay on HUVEC (normal cell line); type: cell-based; details: human, HUVEC (umbilical vein endothelial cells), mean ± SD, read-out: Cytotoxic activity IC50, HUVEC
Protocol: as §1, §2

[6] = system: MCF7 (human breast adenocarcinoma); test: MTT cytotoxicity assay on MCF-7; type: cell-based; details: MCF7, 24 h, mean ± SD, read-out: Cytotoxic activity IC50, MCF-7
Protocol: as §1, §2

CAM model = details: 10 nM; by blocking matrix metalloproteinase-2 gene expression; cited from earlier work
[7] = CAM model, 48 hours, compared to negative control disc

Row | Compound | Anti-angiogenesis activities [1] | IC50 [2, 7] [µg/mL] | IC50 [3] [µg/mL] | IC50 [4] [µg/mL] | Inhibition of angiogenesis (mice VEGF serum levels) | IC50 at 24 h [5] [µg/mL] | IC50 [6] [µg/mL] | Anti-angiogenesis on the CAM model (CAM model) | IC50 ([2]; 48 h) [µg/mL]
1 | COc1ccc(-c2oc3c(C)c(OC)cc(OC)c3c(=O)c2OC)cc1OC [8-methylquercetin-3,5,7,3',4'-pentamethyl ether, reference compound] | demonstrated anti-angiogenesis activities | – | – | – | – | – | – | – | –
2 | C[C@@H]1O[C@@H](OC[C@H]2O[C@@H](Oc3c(-c4ccc(O)c(O)c4)oc4cc(O)cc(O)c4c3=O)[C@H](O)[C@@H](O)[C@@H]2O)[C@H](O)[C@H](O)[C@H]1O [Compound 1, quercetin 3-O-rutinoside] | – | 7.12 ± 0.1 (≈ 11.7 µM) | 2.96 ± 0.16 (≈ 4.85 µM) | 6.95 ± 0.32 (≈ 11.4 µM) | inhibited angiogenesis | 9.35 ± 0.8 (≈ 15.3 µM) | 3.16 ± 0.3 (≈ 5.18 µM) | – | –
3 | COc1cc(-c2oc3cc(O)cc(O)c3c(=O)c2O[C@@H]2O[C@H](CO)[C@@H](O)[C@H](O)[C@H]2O)ccc1O [Compound 2, isorhamnetin 3-O-glucoside] | – | 6 ± 0.21 (≈ 12.5 µM) | 1.72 ± 0.02 (≈ 3.6 µM) | 8.43 ± 0.32 (≈ 17.6 µM) | – | 9.96 ± 0.37 (≈ 20.8 µM) | 2.58 ± 0.21 (≈ 5.39 µM) | – | –
4 | O=c1c(O)c(-c2ccc(O)c(O)c2)oc2cc(O)cc(O)c12 [Compound 3, quercetin] | demonstrated anti-angiogenesis activities | – | ≤ 3 | 6.17 ± 0.13 (≈ 20.4 µM) | – | 7.23 ± 0.29 (≈ 23.9 µM) | ≤ 3 | exhibited anti-angiogenesis | 5.3 ± 0.3 (≈ 17.5 µM)
5 | COc1cccc2c1C(=O)c1c(O)c3c(c(O)c1C2=O)C[C@@](O)(C(=O)CO)C[C@@H]3O[C@H]1C[C@H](N)[C@H](O)[C@H](C)O1 [Doxorubicin, doxorubicin, reference compound] | – | – | 0.051 ± 0.004 (≈ 0.0938 µM) | 0.066 ± 0.007 (≈ 0.121 µM) | – | 0.045 ± 0.006 (≈ 0.0828 µM) | 0.034 ± 0.01 (≈ 0.0626 µM) | – | –
